Measurements as given in patent US11896678B2, “Compositions and methods for treatment of peroxisome proliferator-activated receptor gamma (PPARG) activated cancer” (THE BROAD INSTITUTE, INC., priority 2017, dated 2024).

Tests used:
[1] = cited from earlier work
[2] = alone; cited from earlier work
[3] = cited from earlier work; remark: listed apart in the source
[4] = tested on: PPARG-activated pancreatic and colorectal cancer cell lines; assay: Kinetic proliferation assay in pancreatic and colorectal cancer cell lines; assay type: cell-based; conditions: 500 nM
Excerpt: To enable cell-counting, cell lines were transduced with a lentiviral vector encoding nuclear-targeted GFP (TagGFP2-H2B), and stable pools generated following selection for puromycin-resistance. Cell lines were maintained for at least 7 days following selection prior to expansion and seeding into 96-well plates for further analysis. For kinetic proliferation assays, 96-well plates were imaged in phase-contrast and green fluorescence mode every two hours using IncuCyte Zoom (Essen BioScience, Ann Arbor MI). Using IncuCyte software, the number of fluorescent nuclei were counted to monitor quantitative changes in cell number over time. Media and compounds were replaced approximately every 3-4 days.
DMSO treatment was also included as a vehicle control.

[5] = tested on: PPARG-activated bladder cancer cell lines; assay: Proliferation assays in PPARG-activated bladder cancer cell lines; assay type: cell-based, human; conditions: 100 nM-500 nM
Method: A panel of bladder cancer cell lines with PPARG modulators in colony formation assays was then tested (FIG. 10), kinetic proliferation assays (IncuCyte Zoom; Essen Bioscience) using cell lines treated with a single concentration of compound (100 nM-500 nM), and end-point dose-response assays (CellTiter Glo or CyQuant).
This assay was expanded to include an additional 8 representative bladder cancer cell lines, including cell lines with PPARG amplification, RXRA p.S427F mutation, activated gene signature, and control cell lines with low level expression of PPARG and target genes. […] Representative data for the UM-UC-9 cell line are shown in FIG. 6B, and is tabulated for the tested bladder cancer cell lines in Table 1. […] This significant (P<0.01) preferential sensitivity to PPARG inverse-agonists, but not antagonists, is maintained across all of the PPARG-activated cell lines in the panel, including the RXRA p.S427F cell line, HT-1197 (41), the PPARG-amplified cell lines, 5637 and UM-UC-9, and the PPARG activation gene signature cell lines Cal29, UM-UC-1, and RT112/84 (FIG. 12). […] Similar results were obtained with these cell lines in parallel studies using clonogenic assays to quantify colony-forming ability (FIG. 10).
(§1) Proliferation Assays: To enable cell-counting experiments, cell lines were transduced with a lentiviral vector encoding nuclear-targeted GFP, TagGFP2-H2B (Evrogen), and stable pools generated following selection for puromycin resistance. Cell lines were maintained for at least 7 days following selection prior to expansion and seeding into 96- or 384-well plates for further analysis. For kinetic proliferation assays, 96-well plates (n 1% 4 per condition) were imaged and counted every two hours using IncuCyte Zoom (Essen BioScience). Media and compounds were replaced approximately every 3-4 days. For endpoint assays to measure dose-response, cells were plated in 384-well plates, dosed with compound, and upon reaching approximately 70% to 90% confluence in control wells, cells were either counted using fluorescence imaging (Incu-Cyte Zoom) or incubated with CyQuant (Thermo Fisher) at the indicated time and plates were read with a fluorescent plate reader.

PPARA = molecular target: T1, PPARA (Homo sapiens, UniProt Q07869); conditions: read-out: apparent Ki; cited from earlier work
T1 sequence (Q07869 1-468): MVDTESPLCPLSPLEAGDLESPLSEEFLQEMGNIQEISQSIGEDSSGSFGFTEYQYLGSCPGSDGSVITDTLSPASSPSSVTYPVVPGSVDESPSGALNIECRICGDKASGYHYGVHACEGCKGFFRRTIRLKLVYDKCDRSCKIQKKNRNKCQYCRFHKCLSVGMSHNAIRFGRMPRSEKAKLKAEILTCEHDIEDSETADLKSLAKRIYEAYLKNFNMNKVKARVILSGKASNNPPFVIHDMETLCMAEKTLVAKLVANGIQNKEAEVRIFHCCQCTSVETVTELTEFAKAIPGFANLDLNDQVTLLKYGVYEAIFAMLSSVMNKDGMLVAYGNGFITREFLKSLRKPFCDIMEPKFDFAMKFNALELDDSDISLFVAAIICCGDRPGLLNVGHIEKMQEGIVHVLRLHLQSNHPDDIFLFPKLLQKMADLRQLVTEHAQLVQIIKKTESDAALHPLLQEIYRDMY

UM-UC-9 cells = assay: Direct cell counting dose-response proliferation assay; assay type: cell-based, human
Method: To determine whether PPARG modulators affect the proliferation and/or viability of PPARG-activated bladder cancer cell lines, a direct cell counting-based assay was performed. This assay likely avoids potential artifacts associated with the use of an ATP content-based assay, given that PPAR modulators are known to regulate cellular metabolic activity. […] These IC50 values align well with the calculated IC50s from both the cell-based reporter gene assay (FIG. 8A) and the biochemical corepressor assay (FIG. 8D).
as §1

FABP4 expression = assay: Immunoblot of FABP4 in bladder cancer cell lines; assay type: cell-based, human; conditions: panel of bladder cancer cell lines
Method: Western Blot Analysis: Western blots were performed using standard protocols with semi-dry transfer Trans-Blot® SD (Bio-Rad Hercules, CA), Li-Cor Odyssey Blocking buffer, and imaging with LiCor Odyssey Imaging System (LI-COR Lincoln, NE). Briefly, cells were grown in 6-well plates and harvested using Complete Lysis-M with protease and phosphatase inhibitors (Roche Applied Science). Western blot analyses were performed using standard protocols with semi-dry transfer Trans-Blot SD (Bio-Rad), LI-COR Odyssey Blocking buffer, and imaging with LI-COR Odyssey Imaging System (LI-COR). The anti-PPARG C26H12, anti-PPARG 81B8, anti-FABP4 D25B3, and anti-CEACAM5 CB30 antibodies were obtained from Cell Signaling Technology. The anti-ACSL5 ab57210 and anti-HMCGS2 EPR8642 antibodies were obtained from Abcam. The anti-VCL (vinculin) V9264 antibody was obtained from Sigma-Aldrich. All primary antibodies were tested at 1:1,000 dilutions, with the exception of anti-VCL, which was tested at a 1:5,000 dilution. Secondary goat anti-mouse 926-68020, and goat-anti-rabbit 926-32211 antibodies were obtained from LI-COR Biosciences and used at 1:15,000 dilutions.

DLBCL cells = conditions: 1-15 uM; cited from earlier work
5637 cells = assay: Proliferation assay in PPARG-amplified 5637 cells; assay type: cell-based; conditions: Homo sapiens; data not shown
Method: To determine if treatment of PPARG-activated bladder cancer cell lines with PPARG modulators impacted viability, a variety of compounds were tested in proliferation assays.

bladder cancer = conditions: rodents; cited from earlier work
[6] = tested on: urinary bladder carcinogenesis; conditions: rats; cited from earlier work

Q: For N.N.O=C([O-])C1(C(=O)[O-])CCC1.[Pt+2] [Carboplatin, platinum, diammine [1,1-cyclobutane-dicarboxylato(2-)-0,0′]-(SP-4-2)], which solubility in water [1] is on record?
A: Its solubility in water is “approximately 14 mg/mL”.

Q: And the oral bioavailability [2]?
A: The oral bioavailability was “approximately 4%”.

Q: And the “pH of a 1% solution” value [3]?
A: The value was 5-7.

Q: With O=C(Nc1ccncc1)c1cc([N+](=O)[O-])ccc1Cl [T0070907, 2-Chloro-5-nitro-N-4-pyridinyl-benzamide] as the compound, how does the “sensitivity of cell lines” value [4] read?
A: Its value is “preferentially sensitive”.

Q: And the “sensitivity of cell lines” value [5]?
A: Its value is “preferentially sensitive”.

Q: And the Ki (PPARA)?
A: The Ki was about 850 nM.

Q: What about the “effect on cell proliferation compared with DMSO control” value (UM-UC-9 cells) of the same compound?
A: The value was “significantly reduced proliferation”.

Q: And the IC50 (UM-UC-9 cells; Homo sapiens, UM-UC-9, read-out: calculated IC50, proliferation)?
A: The IC50 was 39 nM.

Q: And the “expression of FABP4” value (FABP4 expression)?
A: The value was “able to reduce expression of FABP4”.

Q: And the “growth of DLBCL cells” value (DLBCL cells)?
A: The value was “attenuate growth”.

Q: And the IC50 (5637 cells)?
A: The IC50 was 20 to 30 nM.

Q: Which “carcinogenic effect, bladder cancer” value (bladder cancer) does the source give for CN(CCOc1ccc(CC2SC(=O)NC2=O)cc1)c1ccccn1 (stereo not shown) [rosiglitazone] here?
A: Its value is “not”.

Q: What about the “urinary bladder carcinogenesis compared with OH-BBN alone” value [6] of the same compound?
A: The value was “potentiate urinary bladder carcinogenesis”.
